According to publication PMC8277928, “Influence of Terminal Functionality on the Crystal Packing Behaviour and Cytotoxicity of Aromatic Oligoamides” (Frontiers in Chemistry, 2021):
Where two headings read alike, the source gives them in different places.

Experiments:
[1] = test system: PNT-2 non-malignant prostate cell line (immortalized with SV40); assay: MTT cytotoxicity (chemosensitivity) assay, 96 h, non-malignant cells; format: cell-based, human; conditions: 37°C, 5% CO2, read-out: IC50 values (μM) ± SD, PNT-2
Description: A SI value >1 indicates increased selectivity for the cancerous cell line over the non-malignant one, whilst a SI value <1 indicates the inverse (i.e., increased selectivity for the non-malignant cell line over the cancerous one). […]
(§1) In vitro chemosensitivity assays were performed against human ovarian carcinoma (A2780), cisplatin-resistant human ovarian carcinoma (A2780cisR) and human breast adenocarcinomas (MCF-7 and MDA-MB-231). Additionally, growth inhibitory effects were also tested against non-malignant prostate cell line immortalised with SV40, PNT-2. All cell lines were provided by the Institute of Cancer Therapeutics, University of Bradford and were routinely maintained as monolayer cultures in RPMI 1640 media supplemented with 10% foetal calf serum, sodium pyruvate (1 mM) and L-glutamine (2 mM). All assays were conducted in 96-well round bottom plates, with control lanes for media and 100% cell growth. Cell concentrations of 1 x 10^4 cells/mL were used, and 100 µL (or 100 µL media in control lane 1) of cell suspension were incubated for 24 h at 37 °C and 5% CO2 prior to drug exposure.
(§2) 100 mM stock solutions, which were further diluted with complete me dia to provide a range of final concentrations. After 24 h, 100 μL of the drug/media solutions were added to the plates (columns 3-12 drug concentrations, with 100 µL media in the control lanes), and then the plates incubated for 96 h at 37°C and 5% CO2. All drug solutions were added to the plates so that the final DMSO concentrations were <0.1% (v/v) in all cases. After 96 h, 3-(4,5-dimethylthiazol-2-yl)-2,5-diphenyltetrazolium bromide (MTT) (20 µL, 5 mg/mL) was added to each well and incubated for 3 h at 37 °C and 5% CO2. All solutions were then removed via pipette, 150 μL DMSO added to each well and the formazan crystals mixed thoroughly. A Thermo Scientific Multiscan EX microplate photometer was used to measure the absorbance of each well at 540 nm. Percentage cell viabilities were determined on a logarithmic scale, and the half maximal inhibitory concentration (IC50) determined from a plot of % cell survival versus concentration (µM). Each of the experiments was performed as duplicate technical repeats and triplicate experimental repeats, with mean values as the IC50 ± Standard Deviation (SD).

[2] = test system: MDA-MB-231 breast adenocarcinoma cells; assay: MTT cytotoxicity (chemosensitivity) assay, 96 h; format: cell-based, human; conditions: for IC50: 96 h incubation, MTT, 37°C, 5% CO2, read-out: IC50 values (μM) ± SD, MDA-MB-231; for Selectivity Index (SI), MDA-MB-231 compared to PNT-2: IC50 PNT-2 divided by IC50 MDA-MB-231, * = minimum SI value
Description: (§3) The IC50 values were obtained via the MTT assay after a 96 h incubation period of each compound with the cells at 37°C and 5% CO2 (Table 2; Figure 6). […]
as §1, §2

[3] = test system: A2780cisR cisplatin-resistant ovarian carcinoma cells; assay: MTT cytotoxicity (chemosensitivity) assay, 96 h; format: cell-based, human; conditions: for IC50: 96 h incubation, MTT, 37°C, 5% CO2, read-out: IC50 values (μM) ± SD, A2780cisR; for Selectivity Index (SI), A2780cisR compared to PNT-2: IC50 PNT-2 divided by IC50 A2780cisR, * = minimum SI value
Description: as §3, §1, §2

[4] = test system: MCF-7 breast adenocarcinoma cells; assay: MTT cytotoxicity (chemosensitivity) assay, 96 h; format: cell-based, human; conditions: for IC50: 96 h incubation, MTT, 37°C, 5% CO2, read-out: IC50 values (μM) ± SD, MCF-7; for Selectivity Index (SI), MCF-7 compared to PNT-2: IC50 PNT-2 divided by IC50 MCF-7, * = minimum SI value
Description: as §3, §1, §2

[5] = test system: A2780 cisplatin-sensitive ovarian carcinoma cells; assay: MTT cytotoxicity (chemosensitivity) assay, 96 h; format: cell-based, human; conditions: for IC50: 96 h incubation, MTT, 37°C, 5% CO2, read-out: IC50 values (μM) ± SD, A2780; for Selectivity Index (SI), A2780 compared to PNT-2: IC50 PNT-2 divided by IC50 A2780, * = minimum SI value
Description: as §3, §1, §2

[6] = test system: A2780, A2780cisR, MCF-7 and MDA-MB-231 cells; assay: MTT cytotoxicity assay, 96 h, range over all cancer cell lines; format: cell-based; conditions: Homo sapiens, read-out: IC50 values against all cell lines (range)
Description: as §3
as §1, with “Cell concentrations of 1 x 10^4 cells/mL were used, and 100 µL (or 100 µL media in control lane 1) of cell suspension were incubated for 24 h at 37 °C and 5% CO2 prior to drug exposure.” left out
100 mM stock solutions, which were further diluted with complete me dia to provide a range of final concentrations. […] A Thermo Scientific Multiscan EX microplate photometer was used to measure the absorbance of each well at 540 nm. Percentage cell viabilities were determined on a logarithmic scale, and the half maximal inhibitory concentration (IC50) determined from a plot of % cell survival versus concentration (µM). […]

[7] = Homo sapiens, PNT2, 96 h incubation

SMILES	IC50 ([1]; 96 h incubation) [µM]	IC50 [2] [µM]	Selectivity Index (SI), MDA-MB-231 compared to PNT-2 [2]	IC50 [3] [µM]	Selectivity Index (SI), A2780cisR compared to PNT-2 [3]	IC50 [4] [µM]	Selectivity Index (SI), MCF-7 compared to PNT-2 [4]	IC50 [5] [µM]	IC50 [6] [µM]	IC50 [1, 7] [µM]	IC50 ([2]; Homo sapiens, MDA-MB-231) [µM]	IC50 ([3]; Homo sapiens, A2780cisR) [µM]	IC50 ([4]; Homo sapiens, MCF7) [µM]	IC50 ([5]; Homo sapiens, A2780) [µM]	Selectivity Index (SI), A2780 compared to PNT-2 [5]	cytotoxicity in words, MDA-MB-231 ([2]; 96 h MTT)	cytotoxicity in words, A2780cisR ([3]; 96 h MTT)	cytotoxicity in words, MCF-7 ([4]; 96 h MTT)	cytotoxicity in words, A2780 ([5]; 96 h MTT)
N.N.O=C([O-])C1(C(=O)[O-])CCC1.[Pt+2] [CARB, carboplatin, reference compound]	27 ± 2	33 ± 2	0.8	> 100	> 0.3	> 100	> 0.3	17 ± 1											
[NH2][Pt]([NH2])([Cl])[Cl] [CDDP, cisplatin, reference compound]	8.5 ± 0.4	3.07 ± 0.02	2.8	14 ± 1	0.6	1.5 ± 0.2	5.6	1.3 ± 0.1											
CC(=O)Nc1ccccc1NC(=O)c1cccc(C(=O)Nc2ccccc2NC(C)=O)n1 [Compound 1]			> 1.6						≥ 63	> 100	63 ± 4	> 100	> 100	77 ± 5	> 1.3				
CC(C)(C)OC(=O)Nc1ccccc1NC(=O)c1cccc(C(=O)Nc2ccccc2NC(=O)OC(C)(C)C)n1 [Compound 2]			> 1.4				> 1.2			> 100	69 ± 3	> 100	84 ± 3	24 ± 0.9	> 4.2	moderate to non-cytotoxic	moderate to non-cytotoxic	moderate to non-cytotoxic	
Nc1ccccc1NC(=O)c1cccc(C(=O)Nc2ccccc2N)n1 [Compound 3]					> 1.6					> 100	> 100	61 ± 2	> 100	> 100					non-toxic
O=C1[O][Pt]2([NH][C@@H]3CCCC[C@H]3[NH]2)[O]C1=O [OXA, oxaliplatin, reference compound]	1.3 ± 0.2	2.5 ± 0.6	0.5	2.09 ± 0.03	0.6	2.6 ± 0.2	0.5	0.505 ± 0.002							2.6				
